Here are results for 15 compounds from patent US9186360B2, “Treatment of respiratory disorders using TRPA1 antagonists” (GLENMARK PHARMACEUTICALS S.A., priority 2011, dated 2015).

One experiment addresses human TRPA1 (Homo sapiens (Human), UniProt O75762). The experiment in a line: 45Calcium uptake assay, AITC induced, human TRPA1 expressing CHO cells. The format is cell-based. The following applies: AITC 30 micromolar, read-out: IC50 values hTRPA1. The essentials: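 CHO cells expressing human TRPA1 preincubated 10 min with compound (0.5% DMSO), then 30 µM AITC plus 5 µCi/ml 45Ca2+ for 3 min at 25 °C. Lysate radioactivity counted by scintillation. IC50 by nonlinear regression of % maximal uptake without antagonist.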

The target of the next experiment is human TRPV3 (Homo sapiens (Human), UniProt Q8NET8). Briefly: Radiometric calcium selectivity assay, CHO cells expressing human TRPV3 (2-aminoethoxydiphenyl borate). The format is cell-based. As to conditions: read-out: IC50 values hTRPV3.
human TRPV3, sequence (Q8NET8 whole entry): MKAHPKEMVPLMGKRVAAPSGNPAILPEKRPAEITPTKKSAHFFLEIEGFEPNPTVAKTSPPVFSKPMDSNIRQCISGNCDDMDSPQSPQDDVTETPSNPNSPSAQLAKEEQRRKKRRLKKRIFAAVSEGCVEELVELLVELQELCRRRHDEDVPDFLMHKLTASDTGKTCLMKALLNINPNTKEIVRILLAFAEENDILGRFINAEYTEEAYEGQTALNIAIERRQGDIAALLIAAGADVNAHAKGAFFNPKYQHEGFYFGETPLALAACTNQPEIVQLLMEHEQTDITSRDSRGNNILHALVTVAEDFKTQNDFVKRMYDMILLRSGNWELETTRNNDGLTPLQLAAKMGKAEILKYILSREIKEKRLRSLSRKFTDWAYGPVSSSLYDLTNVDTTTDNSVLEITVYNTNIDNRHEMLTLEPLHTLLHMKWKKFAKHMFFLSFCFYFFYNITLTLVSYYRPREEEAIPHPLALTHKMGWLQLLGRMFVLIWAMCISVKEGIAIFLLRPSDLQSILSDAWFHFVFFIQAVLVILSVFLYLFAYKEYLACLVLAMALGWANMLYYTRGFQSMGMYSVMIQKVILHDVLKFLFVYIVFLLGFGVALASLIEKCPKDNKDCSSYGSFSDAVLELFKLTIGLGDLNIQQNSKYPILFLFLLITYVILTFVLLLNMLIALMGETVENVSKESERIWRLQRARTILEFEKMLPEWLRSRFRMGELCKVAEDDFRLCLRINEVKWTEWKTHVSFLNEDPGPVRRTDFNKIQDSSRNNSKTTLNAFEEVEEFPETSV
Another experiment has as its target human TRPV1 (Homo sapiens (Human), UniProt Q8NER1). Briefly: Radiometric calcium selectivity assay, CHO cells expressing human TRPV1 (capsaicin). The format is cell-based. As to conditions: read-out: IC50 values hTRPV1.
The target of another experiment is human TRPM8 (Homo sapiens (Human), UniProt Q7Z2W7). Briefly: Radiometric calcium selectivity assay, CHO cells expressing human TRPM8 (icilin). The format is cell-based. As to conditions: read-out: IC50 values hTRPM8.
human TRPM8, sequence (Q7Z2W7 whole entry): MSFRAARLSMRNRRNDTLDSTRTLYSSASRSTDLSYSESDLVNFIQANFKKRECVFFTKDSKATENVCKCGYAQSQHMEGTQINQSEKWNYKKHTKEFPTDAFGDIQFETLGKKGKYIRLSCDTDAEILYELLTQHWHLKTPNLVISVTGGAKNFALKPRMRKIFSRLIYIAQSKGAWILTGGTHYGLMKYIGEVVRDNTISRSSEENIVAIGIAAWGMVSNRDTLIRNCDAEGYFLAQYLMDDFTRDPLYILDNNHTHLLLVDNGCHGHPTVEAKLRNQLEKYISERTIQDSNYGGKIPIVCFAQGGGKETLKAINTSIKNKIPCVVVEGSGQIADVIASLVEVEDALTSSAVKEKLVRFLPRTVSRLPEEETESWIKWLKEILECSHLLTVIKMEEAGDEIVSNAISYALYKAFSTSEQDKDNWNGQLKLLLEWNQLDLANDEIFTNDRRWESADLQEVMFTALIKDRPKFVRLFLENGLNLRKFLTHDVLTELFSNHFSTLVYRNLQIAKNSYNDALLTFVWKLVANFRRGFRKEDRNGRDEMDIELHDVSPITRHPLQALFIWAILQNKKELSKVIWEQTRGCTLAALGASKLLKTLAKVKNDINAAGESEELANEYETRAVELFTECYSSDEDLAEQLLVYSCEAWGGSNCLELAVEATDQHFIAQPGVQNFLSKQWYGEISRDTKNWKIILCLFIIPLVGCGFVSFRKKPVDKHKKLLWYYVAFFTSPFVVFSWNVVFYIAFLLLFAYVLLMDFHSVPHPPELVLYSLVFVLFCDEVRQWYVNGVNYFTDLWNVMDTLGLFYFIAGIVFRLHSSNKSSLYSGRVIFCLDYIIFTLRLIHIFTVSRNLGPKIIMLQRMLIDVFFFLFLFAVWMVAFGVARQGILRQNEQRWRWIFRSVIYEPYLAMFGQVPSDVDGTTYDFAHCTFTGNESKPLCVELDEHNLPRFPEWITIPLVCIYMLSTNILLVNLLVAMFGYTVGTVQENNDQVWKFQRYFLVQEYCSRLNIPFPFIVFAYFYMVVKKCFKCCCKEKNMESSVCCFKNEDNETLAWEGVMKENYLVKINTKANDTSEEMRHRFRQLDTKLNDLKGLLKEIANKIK
For the next experiment, the target named is human TRPV4 (Homo sapiens (Human), UniProt Q9HBA0). The experiment in a line: Radiometric calcium selectivity assay, CHO cells expressing human TRPV4 (4α-phorbol 12,13-didecanoate). The format is cell-based. As to conditions: read-out: IC50 values hTRPV4.
human TRPV4, sequence (Q9HBA0 whole entry): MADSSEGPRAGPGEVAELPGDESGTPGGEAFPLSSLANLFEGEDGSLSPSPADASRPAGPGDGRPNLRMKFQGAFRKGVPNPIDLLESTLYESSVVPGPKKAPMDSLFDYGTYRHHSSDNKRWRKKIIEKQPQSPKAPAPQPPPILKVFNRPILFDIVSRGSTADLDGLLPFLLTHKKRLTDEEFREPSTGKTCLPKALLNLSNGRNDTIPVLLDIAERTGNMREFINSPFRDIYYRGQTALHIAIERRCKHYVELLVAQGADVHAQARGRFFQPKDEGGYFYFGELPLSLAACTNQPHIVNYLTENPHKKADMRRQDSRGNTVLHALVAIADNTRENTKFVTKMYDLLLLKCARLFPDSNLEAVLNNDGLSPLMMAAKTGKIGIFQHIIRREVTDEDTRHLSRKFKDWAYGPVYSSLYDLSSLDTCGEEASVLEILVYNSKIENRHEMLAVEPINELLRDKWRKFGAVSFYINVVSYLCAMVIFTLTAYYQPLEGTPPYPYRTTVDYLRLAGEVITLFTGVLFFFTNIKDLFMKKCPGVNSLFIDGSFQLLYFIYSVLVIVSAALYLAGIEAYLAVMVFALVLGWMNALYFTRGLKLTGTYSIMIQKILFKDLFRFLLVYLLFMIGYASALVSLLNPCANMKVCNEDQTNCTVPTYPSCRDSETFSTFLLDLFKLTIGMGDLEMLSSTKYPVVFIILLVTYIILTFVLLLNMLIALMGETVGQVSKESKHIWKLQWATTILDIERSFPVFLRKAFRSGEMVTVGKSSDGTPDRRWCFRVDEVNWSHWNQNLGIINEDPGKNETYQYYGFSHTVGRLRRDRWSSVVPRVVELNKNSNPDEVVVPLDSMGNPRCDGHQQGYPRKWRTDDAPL
Experiment [1] has as its system ovalbumin sensitized Brown Norway rats. Briefly: Ovalbumin asthma model in Brown Norway rats (Example 5). As to conditions: i.t. 1 hour before ovalbumin challenge, BAL 48 hours; dose dependent. The format is in vivo, rat. The protocol: Male BN rats were sensitized subcutaneously (s.c.) on day 0, 14 and 21 with 0.5 ml solution containing 20 μg/ml ovalbumin (Ova) and 40 mg/ml aluminum hydroxide. Simultaneously the animals were injected intraperitoneally (i.p.) with 0.25 ml of B. pertussis vaccine/rat containing 4×10^8 heat killed bacilli/ml. The rats were challenged with 1% aerosolized ovalbumin on Day 28 following sensitization.
Test compounds were triturated and volume was made up with Normal Saline (0.9% NaCl). Animals were administered TRPA1 antagonists (Compound 52, Compound 73, Compound 84, Compound 90 and Compound 92) intra-tracheally (i.t.) 1 hour and fluticasone 24 hours and 1 hour before ovalbumin challenge. Animals were sacrificed 48 hours after ovalbumin challenge.
BAL was performed at approximately 48 hours after ovalbumin challenge and the pooled BAL was used to determined total number of cells and for cell differential study (according to Example 2).
The total number of eosinophils in each BAL sample and % inhibition of eosinophils were calculated according to Example 3
The data was statistically evaluated by ANOVA followed by Dunnett's multiple comparisons test.

The test system of experiment [2] is LPS exposed Brown Norway rats. Briefly: Aerosolized LPS induced airway inflammation in Brown Norway rats. The format is in vivo, rat. The following applies: i.t. 4 hours before LPS; Compound 52 1000 μg/animal, Compound 90 2000 μg/animal; BAL 12 hours. The protocol:
Male Brown Norway rats were exposed to aerosolized Lipopolysaccharide (LPS) (100 μg/ml) for 40 minutes at 1.8 bar pressure using a nebulizer (Hudson Respiratory Care Incorporated), phosphate buffered saline (PBS) control animals were exposed to hyrdroxylamine hydrochloride in PBS.
Test compounds were triturated and volume was made up with either distilled water or normal saline (0.9% NaCl). Animals were administered Compound 52 and Compound 90 intra-treacheally 4 hours before LPS aerosolized exposure. Animals were sacrificed 12 hours after aerosolized exposure. The control group of animals received only 2 mg Lactose/100 μl distilled water/animal intratracheally or normal saline 100 μl/animal intratracheally.
Broncho alveolar lavage (BAL) was performed at approximately 12 hours after aerosolized exposure. Animals were euthanized with an overdose of urethane, trachea was exposed and BAL was performed 5 times using 2 ml PBS. All aspirates of BAL were pooled and total number of cells determined using a hemocytometer. BALFwas centrifuged. […]
The total number of neutrophils in each BAL sample was calculated using the formula:
[formula] Percent inhibition of neutrophils was calculated using the following formula:
[formula] Data was statistically evaluated by ANOVA followed by Dunnett's multiple comparisons test. […]

pIC50: −log10 of the molar value.

human TRPV1, sequence (Q8NER1 whole entry): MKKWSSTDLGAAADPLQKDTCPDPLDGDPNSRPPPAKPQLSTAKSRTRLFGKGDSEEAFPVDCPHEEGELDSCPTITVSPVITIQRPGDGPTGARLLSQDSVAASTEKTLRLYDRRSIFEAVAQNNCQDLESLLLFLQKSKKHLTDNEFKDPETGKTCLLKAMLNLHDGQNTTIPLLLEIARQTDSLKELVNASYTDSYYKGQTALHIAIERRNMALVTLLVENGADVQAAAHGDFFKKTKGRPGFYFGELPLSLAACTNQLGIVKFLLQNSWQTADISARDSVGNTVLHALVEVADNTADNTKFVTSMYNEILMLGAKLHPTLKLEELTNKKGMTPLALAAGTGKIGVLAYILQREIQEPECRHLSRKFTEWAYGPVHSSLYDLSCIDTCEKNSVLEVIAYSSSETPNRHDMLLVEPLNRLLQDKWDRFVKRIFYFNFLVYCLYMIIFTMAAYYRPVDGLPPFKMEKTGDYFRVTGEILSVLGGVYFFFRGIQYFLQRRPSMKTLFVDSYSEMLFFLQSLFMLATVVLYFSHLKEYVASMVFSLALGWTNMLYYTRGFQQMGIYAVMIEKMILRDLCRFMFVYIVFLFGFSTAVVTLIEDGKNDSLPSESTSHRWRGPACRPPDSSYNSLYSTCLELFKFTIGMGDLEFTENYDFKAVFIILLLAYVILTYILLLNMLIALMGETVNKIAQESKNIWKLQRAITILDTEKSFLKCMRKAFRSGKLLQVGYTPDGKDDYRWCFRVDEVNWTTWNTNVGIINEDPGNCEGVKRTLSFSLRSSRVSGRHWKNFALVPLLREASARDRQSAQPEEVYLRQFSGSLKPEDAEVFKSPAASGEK
human TRPA1, sequence (O75762 whole entry): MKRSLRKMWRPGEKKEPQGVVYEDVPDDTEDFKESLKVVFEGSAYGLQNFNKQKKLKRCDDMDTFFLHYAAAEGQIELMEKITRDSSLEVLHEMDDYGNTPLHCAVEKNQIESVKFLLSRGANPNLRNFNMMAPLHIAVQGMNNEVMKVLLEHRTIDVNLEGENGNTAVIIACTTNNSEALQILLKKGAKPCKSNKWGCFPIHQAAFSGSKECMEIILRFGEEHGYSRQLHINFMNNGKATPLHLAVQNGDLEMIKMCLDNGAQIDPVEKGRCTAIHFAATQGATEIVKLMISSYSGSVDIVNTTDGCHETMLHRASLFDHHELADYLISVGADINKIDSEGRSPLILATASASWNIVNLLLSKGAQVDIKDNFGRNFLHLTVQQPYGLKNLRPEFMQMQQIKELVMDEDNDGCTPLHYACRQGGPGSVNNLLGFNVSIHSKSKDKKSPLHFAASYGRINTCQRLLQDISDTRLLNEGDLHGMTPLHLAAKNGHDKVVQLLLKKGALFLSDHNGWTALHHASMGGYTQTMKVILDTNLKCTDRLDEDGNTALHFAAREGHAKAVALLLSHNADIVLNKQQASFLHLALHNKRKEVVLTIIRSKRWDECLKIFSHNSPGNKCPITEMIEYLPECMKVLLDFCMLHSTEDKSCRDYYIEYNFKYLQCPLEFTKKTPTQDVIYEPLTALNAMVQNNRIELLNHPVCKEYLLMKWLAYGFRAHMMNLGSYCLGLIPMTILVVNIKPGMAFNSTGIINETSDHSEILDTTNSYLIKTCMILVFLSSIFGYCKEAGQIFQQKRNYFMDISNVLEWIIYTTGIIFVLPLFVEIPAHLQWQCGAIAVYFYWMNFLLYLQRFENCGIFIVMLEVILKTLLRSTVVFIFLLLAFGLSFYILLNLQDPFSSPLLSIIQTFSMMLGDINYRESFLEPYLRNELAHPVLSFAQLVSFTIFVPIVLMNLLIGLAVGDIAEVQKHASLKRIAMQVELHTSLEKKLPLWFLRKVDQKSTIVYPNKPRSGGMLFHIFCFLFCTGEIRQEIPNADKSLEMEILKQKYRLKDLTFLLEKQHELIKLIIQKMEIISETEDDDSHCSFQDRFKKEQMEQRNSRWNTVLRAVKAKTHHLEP

The term pIC50 denotes the IC50 on a negative log10 scale, so that one unit is a factor of ten. As to `Cc1oc2c(c1CC(=O)Nc1nc(-c3cc(Cl)c(OCC(C)C)c(Cl)c3)cs1)c(=O)n(C)c(=O)n2C` [Compound 75], the negative logarithm of the IC50 (pIC50) was 8.48 on human TRPA1; less than 5.00 at human TRPV3; less than 5.00 at human TRPV1; less than 5.00 on human TRPM8; less than 5.00 at human TRPV4.
Consider `Cc1oc2c(c1CC(=O)Nc1nc(-c3ccc(C(F)(F)F)c(F)c3F)cs1)c(=O)n(C)c(=O)n2C` [Compound 76], for which the negative-log IC50 (pIC50) is 8.40 on human TRPA1; 5.60 at human TRPV3; 5.10 on human TRPV1; less than 5.00 at human TRPM8; 5.05 on human TRPV4.
In the same order, the values of `Cn1c(=O)c2c(CC(=O)Nc3nc(-c4ccc(F)c(C(F)(F)F)c4F)cs3)nsc2n(C)c1=O` [Compound 77] are 8.25, 5.75, less than 5.00, less than 5.00 and 6.26.
In the same order, the values of `Cn1c(=O)c2c(CC(=O)Nc3nc(-c4ccc(C(F)(F)F)cc4F)cs3)nsc2n(C)c1=O` [Compound 78] are 7.98, less than 6.00, less than 5.00, less than 5.00 and 6.82.
Turning to `Cn1c(=O)c2c(CC(=O)Nc3nc(-c4cccc(C(F)(F)F)c4F)cs3)nsc2n(C)c1=O` [Compound 79], the negative-log IC50 (pIC50) on human TRPA1 is 8.28; on human TRPV3, less than 6.00; on human TRPV1, less than 5.00; at human TRPM8, less than 5.00; at human TRPV4 it was 6.08.
In the case of `Cn1c(=O)c2c(CC(=O)Nc3nc(-c4ccc(OC(F)(F)F)c(Cl)c4)cs3)nsc2n(C)c1=O` [Compound 80], the negative-log IC50 (pIC50) was 8.20 on human TRPA1; less than 5.00 at human TRPV3; less than 5.00 at human TRPV1; less than 5.00 on human TRPM8; 6.55 on human TRPV4.
On to `Cn1c(=O)c2c(CC(=O)Nc3nc(-c4ccc(C(F)(F)F)c(F)c4)cs3)nsc2n(C)c1=O` [Compound 81], for which the pIC50 on human TRPA1 was 8.17; on human TRPV3, less than 6.00; at human TRPV1, less than 5.00; at human TRPM8, less than 5.00; on human TRPV4, 6.79.
Consider `Cn1c(=O)c2c(CC(=O)Nc3nc(-c4ccc(OC(F)(F)F)c(F)c4)cs3)nsc2n(C)c1=O` [Compound 82], for which the pIC50 was 8.09 at human TRPA1; less than 6.00 at human TRPV3; less than 5.00 at human TRPV1; less than 5.00 on human TRPM8; 6.76 on human TRPV4.
As to `Cn1c(=O)c2c(CC(=O)Nc3nc(-c4cc(F)cc(C(F)(F)F)c4)cs3)nsc2n(C)c1=O` [Compound 83], the pIC50 on human TRPA1 was 8.36; on human TRPV3, less than 6.00; on human TRPV1 it was less than 5.00; on human TRPM8 it was less than 5.00; at human TRPV4, 6.63.
For `Cn1c(=O)c2c(CC(=O)Nc3nc(-c4ccc(C(F)(F)F)c(F)c4)cs3)ccnc2n(C)c1=O` [Compound 85], the pIC50 is 8.05 at human TRPA1; less than 6.00 at human TRPV3; less than 5.00 at human TRPV1; less than 5.00 on human TRPM8; 6.21 on human TRPV4.
For the compound `Cn1c(=O)c2c(CC(=O)Nc3nc(-c4cc(F)c(OCC(F)(F)F)c(F)c4)cs3)ccnc2n(C)c1=O` [Compound 86], the negative logarithm of the IC50 (pIC50) at human TRPA1 was 8.16; at human TRPV3, less than 5.00; at human TRPV1, less than 5.00; on human TRPM8, less than 5.00; at human TRPV4 it was less than 6.00.
As to `Cn1c(=O)c2c(CC(=O)Nc3nc(-c4ccc(F)c(C(F)(F)F)c4F)cs3)ccnc2n(C)c1=O` [Compound 87], the pIC50 is 7.71 at human TRPA1; less than 5.00 at human TRPV3; less than 5.00 on human TRPV1; less than 5.00 on human TRPM8; 5.70 on human TRPV4.
Consider `Cn1c(=O)c2c(CC(=O)Nc3nc(-c4ccc(OC(F)(F)F)c(F)c4)cs3)ccnc2n(C)c1=O` [Compound 88], for which the negative-log IC50 (pIC50) on human TRPA1 was 7.94; on human TRPV3, less than 6.00; on human TRPV1, less than 5.00; at human TRPM8, less than 5.00; on human TRPV4 it was 6.80.
`COCCCOc1cccc(C2NC(=S)NC3=C2C(=O)c2ccccc23)c1` (centres unmarked) [Compound 90]: the negative logarithm of the IC50 (pIC50) on human TRPV3, at human TRPV1, at human TRPM8 and on human TRPV4 was less than 5.00 in each case. Besides, in experiment [1], the pulmonary eosinophilia entry is “significant inhibition”. For the same compound, the “neutrophils in BALF” value in experiment [2] is given as “significant inhibition”. Besides, the “total leukocytes in BALF” value in experiment [2] was “significant inhibition”.
Turning to `Cn1c(=O)c2c(CC(=O)Nc3nc(-c4ccc(F)c(C(F)(F)F)c4F)cs3)onc2n(C)c1=O` [Compound 92], the pIC50 on human TRPV3 is less than 6.00; at human TRPV1, less than 5.00; on human TRPM8 it was less than 5.00; at human TRPV4, less than 6.00. Further, the pulmonary eosinophilia result in experiment [1] is listed as “significant inhibition”.
